The subject of this assay is L-carnitine dehydrogenase from Alcaligenes sp. No. 981 (FERM BP-2570). Description: Km determination of L-carnitine dehydrogenase (diaphorase/NBT coupled reaction mixture). The format is biochemical. The protocol:
Km-value for NAD^+ is measured in various concentrations of NAD^+ in a reaction mixture of:
100 mM Tris-HCl buffer (pH 9.0)
5 U diaphorase (Toyo Jozo Co.)
0.025% NBT (Wako Pure Chem. Co.)
1% Tween 80 (Wako Pure Chem. Co.) and
In the reaction mixture, 50 mM L-carnitine is replaced by 1 mM NAD^+, and the concentration of L-carnitine is varied to measure the Km-value of L-carnitine.
The results are as shown above.

Read-outs that look alike come from different tables or passages of the source.

These results are taken from US5173416A, “L-carnitine dehydrogenase from alcalgenes” (Toyo Jozo Kabushiki Kaisha, priority 1989, dated 1992).

As to `NC(=O)c1ccc[n+]([C@@H]2O[C@H](COP(=O)([O-])OP(=O)(O)OC[C@H]3O[C@@H](n4cnc5c(N)ncnc54)[C@H](O)[C@@H]3O)[C@@H](O)[C@H]2O)c1` [NAD^+], for the setting “100 mM Tris-HCl buffer pH 9.0, 50 mM L-carnitine, NAD+ concentration varied, read-out: Km-value (NAD+)”, the Km came to 0.141 mM.

For `C[N+](C)(C)C[C@H](O)CC(=O)[O-]` [L-carnitine], the Km (100 mM Tris-HCl buffer pH 9.0, 1 mM NAD+, L-carnitine concentration varied, read-out: Km-value (L-carnitine)) stood at 9.3 mM.

Usually Km stands for the substrate concentration at which the rate is half of its maximum.
